From PubChem BioAssay (NCI)
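Tested at 5 concentrations; 48 h exposure; 96-well plates; endpoints linearly interpolated, else capped at highest concentration. GI50 is the concentration that inhibits growth by half. TGI: concentration producing complete growth inhibition.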

What was measured:
Test in all cases: NCI-60 cell line screen, 48 h
[1] = tested on: CCRF-CEM leukemia
[2] = tested on: U251 CNS
[3] = tested on: UACC-62 melanoma
[4] = tested on: HOP-92 NSCLC
[5] = tested on: K-562 leukemia
[6] = tested on: KM12 colon
[7] = tested on: SK-MEL-28 melanoma
[8] = tested on: ACHN renal
[9] = tested on: HT29 colon
[10] = tested on: MDA-MB-231 breast

In the case of `CCOC(=O)c1oc2ccc(OC)c3c2c1CCC3`, the TGI [1] is reported as over 100 µM, the TGI [2] is reported as over 100 µM and the TGI [3] is reported as over 100 µM. The TGI [4] was over 100 µM, the TGI [5] was over 100 µM and the TGI [6] was over 100 µM. For the same compound, the TGI [7] was over 100 µM and the TGI [8] was over 100 µM.

In the case of `COc1cc2c(cc1OC(=O)CC(C)O)C1C(OC2=O)C(OC(C)=O)C=C2CCN(C)[C@H]21` (some centres undefined), the TGI [1] is reported as over 100 µM, the TGI [2] is reported as 61.4 µM and the TGI [3] is reported as over 100 µM. It also gave a TGI [4] of 44.5 µM, a TGI [5] of over 100 µM and a TGI [9] of over 100 µM. It also gave a TGI [6] of over 100 µM, a TGI [7] of over 100 µM and a TGI [8] of over 100 µM.

`CCN(C(=O)N1CCN(c2cc3c(cc2F)c(=O)c(C(=O)O)cn3C2CC2)CC1)c1nc(-c2ccc(C)cc2)cs1` gave a GI50 [1] of 0.356 µM, a TGI [1] of over 100 µM and a GI50 [2] of 1.04 µM. It also gave a TGI [2] of over 20.9 µM, a GI50 [3] of 0.837 µM and a TGI [3] of over 100 µM. It also gave a GI50 [4] of 0.708 µM, a TGI [4] of 2.8 µM and a GI50 [5] of 0.431 µM. The TGI [5] was over 100 µM, the GI50 [9] was 0.332 µM and the TGI [9] was over 100 µM. The GI50 [6] was 0.41 µM, the TGI [6] was over 100 µM and the GI50 [7] was 0.687 µM. It also gave a TGI [7] of over 100 µM, a GI50 [8] of 0.976 µM and a TGI [8] of over 100 µM.

`CCOC(=O)C1Oc2ccc([N+](=O)[O-])c3c2C1(O)CCC3` (centres undefined) was tested, and the TGI [1] was over 100 µM, the TGI [2] was over 100 µM and the TGI [3] was over 100 µM. It also gave a TGI [4] of over 100 µM, a TGI [5] of over 100 µM and a TGI [9] of over 100 µM. The TGI [6] was over 100 µM, the TGI [7] was over 100 µM and the TGI [8] was over 100 µM.

For `COc1ccc(N=c2ssc3c(=S)ssc23)cc1`, the TGI [1] was 28.2 µM, the TGI [2] was 96.7 µM and the TGI [3] was 61.8 µM. It also gave a TGI [4] of 70.3 µM, a TGI [5] of 22.5 µM and a TGI [6] of over 100 µM. For the same compound, the TGI [7] was 55.6 µM and the TGI [8] was over 100 µM.

For `N#CC(C(=O)CCC(=O)Nc1cccc(Cl)c1)c1ccccc1` (centres undefined), the TGI [1] was over 100 µM, the TGI [2] was over 100 µM and the TGI [3] was over 100 µM. For the same compound, the TGI [4] was over 100 µM, the TGI [5] was over 100 µM and the TGI [9] was over 100 µM. For the same compound, the TGI [6] was over 100 µM, the TGI [7] was over 100 µM and the TGI [8] was over 100 µM.

`O=c1[nH]c2ccccc2nc1-c1c[nH]c2ccccc12` was tested, and the GI50 [1] was over 100 µM, the TGI [1] was over 100 µM and the GI50 [2] was over 100 µM. It also gave a TGI [2] of over 100 µM, a GI50 [5] of over 100 µM and a TGI [5] of over 100 µM. It also gave a GI50 [9] of over 100 µM, a TGI [9] of over 100 µM and a GI50 [6] of 1.39 µM. The TGI [6] was over 100 µM, the GI50 [10] was 7.38 µM and the TGI [10] was over 100 µM. It also gave a GI50 [7] of over 100 µM, a TGI [7] of over 100 µM and a GI50 [8] of over 100 µM. It also gave a TGI [8] of over 100 µM.

Compound `CN(C)CCCN1c2ccccc2CCc2ccc(Cl)cc21` has a GI50 [1] of 3.07 µM, a TGI [1] of 12 µM and a GI50 [2] of 3.8 µM. It also gave a TGI [2] of 14.7 µM, a GI50 [3] of 1.61 µM and a TGI [3] of 3.31 µM. For the same compound, the GI50 [4] was 1.44 µM, the TGI [4] was 6.8 µM and the GI50 [9] was 3.38 µM. For the same compound, the TGI [9] was 11.6 µM, the GI50 [6] was 3.77 µM and the TGI [6] was 13.6 µM. For the same compound, the GI50 [10] was 3.06 µM, the TGI [10] was 12 µM and the GI50 [7] was 1.61 µM. For the same compound, the TGI [7] was 3.07 µM, the GI50 [8] was 3.81 µM and the TGI [8] was 13.5 µM.

With `CCOC(=O)C1=C(NC)OC/C1=N\NC(=O)c1ccccc1O` the TGI [1] was over 100 µM, the TGI [2] was over 100 µM and the TGI [3] was 80.5 µM. It also gave a TGI [4] of over 100 µM, a TGI [5] of over 100 µM and a TGI [6] of over 100 µM. The TGI [7] was over 100 µM.

With `O=C(C1CCCCC1)[C@@H]1[C@]2(C(=O)NC3CCCCC32)[C@@H]2CCCN2[C@@]12C(=O)NC1CCC(Cl)CC12` (some centres undefined) the GI50 [1] was 32.3 µM, the TGI [1] was 137 µM and the GI50 [2] was 148 µM. The TGI [2] was 316 µM, the GI50 [3] was 91.9 µM and the TGI [3] was 215 µM. It also gave a GI50 [5] of 41.2 µM, a TGI [5] of 220 µM and a GI50 [9] of 64.4 µM. The TGI [9] was 199 µM, the GI50 [6] was 130 µM and the TGI [6] was 273 µM. The GI50 [10] was 70.3 µM, the TGI [10] was 224 µM and the GI50 [7] was 129 µM. It also gave a TGI [7] of 278 µM, a GI50 [8] of 103 µM and a TGI [8] of 222 µM.

With `COc1cc(C(=O)C/C(CCC(=O)Nc2ccccc2[N+](=O)[O-])=N\NC(=O)CC#N)ccc1O` the TGI [1] was over 100 µM, the TGI [3] was over 100 µM and the TGI [5] was over 100 µM. The TGI [9] was over 100 µM, the TGI [6] was over 100 µM and the TGI [7] was over 100 µM. For the same compound, the TGI [8] was over 100 µM.

For `CCC1CN2CCc3cc(OC)c(OC)cc3C2CC1CC1c2cc(OC)c(OC)cc2CCN1C(=O)C1CCCN1C(=O)OCc1ccccc1` (centres undefined), the TGI [2] was 28.3 µM, the TGI [3] was 29.7 µM and the TGI [4] was 22 µM. For the same compound, the TGI [5] was 36 µM, the TGI [9] was 27.4 µM and the TGI [6] was 30.1 µM. It also gave a TGI [7] of 30.7 µM and a TGI [8] of 32.1 µM.

`Cn1cnc2nc(Cl)nc(NC(C)(C)C(C)(C)O)c21` showed a TGI [1] of over 100 µM, a TGI [2] of over 100 µM and a TGI [3] of over 100 µM. For the same compound, the TGI [4] was over 100 µM, the TGI [5] was over 100 µM and the TGI [9] was over 100 µM. For the same compound, the TGI [6] was over 100 µM and the TGI [8] was over 100 µM.

For `C=CCOC1OC(CO[Si](C)(C)C(C)(C)C)C(OCc2ccccc2)C(OCc2ccccc2)C1OCc1ccccc1` (centres undefined), the TGI [1] was over 100 µM, the TGI [2] was over 100 µM and the TGI [3] was over 100 µM. For the same compound, the TGI [4] was over 100 µM, the TGI [5] was over 100 µM and the TGI [9] was over 100 µM. The TGI [6] was over 100 µM, the TGI [7] was over 100 µM and the TGI [8] was over 100 µM.

In the case of `CC(=O)OC1CCn2nnc(CO[Si](C)(C)C(C)(C)C)c21` (centres undefined), the TGI [2] is reported as over 100 µM, the TGI [5] is reported as over 100 µM and the TGI [9] is reported as over 100 µM. For the same compound, the TGI [6] was over 100 µM, the TGI [7] was over 100 µM and the TGI [8] was over 100 µM.

`COc1ccc(C2=C(Cl)c3cc(OC)c(OC)cc3C2Cl)cc1OC` (centres undefined) gave a TGI [1] of 28.9 µM, a TGI [2] of 29 µM and a TGI [3] of 31 µM. The TGI [4] was 46.1 µM, the TGI [5] was 48.6 µM and the TGI [9] was 29.8 µM. The TGI [7] was 34.5 µM and the TGI [8] was 38.3 µM.

Work on `COc1cc2c(c(OC)c1OC)-c1ncc3cc(OC)c(OC)c(OC)c3c1C2` yielded a GI50 [1] of over 100 µM, a TGI [1] of over 100 µM and a GI50 [2] of 33 µM. For the same compound, the TGI [2] was over 100 µM, the GI50 [3] was 17.4 µM and the TGI [3] was 34 µM. For the same compound, the GI50 [4] was 52.6 µM, the TGI [4] was over 100 µM and the GI50 [5] was 15.3 µM. The TGI [5] was 50.8 µM, the GI50 [6] was 17.8 µM and the TGI [6] was 63 µM. The GI50 [10] was 21.3 µM, the TGI [10] was 70.8 µM and the GI50 [7] was 25.4 µM. The TGI [7] was 78.1 µM, the GI50 [8] was 24 µM and the TGI [8] was 78.7 µM.

`O=C1c2ccccc2-c2c1c1ccc([N+](=O)[O-])cc1c(=O)n2CCCBr` gave a GI50 [2] of over 100 µM, a TGI [2] of over 100 µM and a GI50 [3] of over 100 µM. The TGI [3] was over 100 µM, the GI50 [4] was over 100 µM and the TGI [4] was over 100 µM. It also gave a GI50 [5] of over 100 µM, a TGI [5] of over 100 µM and a GI50 [9] of over 100 µM. The TGI [9] was over 100 µM, the GI50 [6] was over 100 µM and the TGI [6] was over 100 µM. For the same compound, the GI50 [10] was over 100 µM, the TGI [10] was over 100 µM and the GI50 [7] was over 100 µM. For the same compound, the TGI [7] was over 100 µM, the GI50 [8] was over 100 µM and the TGI [8] was over 100 µM.

`O=C(O)C1(P(=O)(O)O)CC1` was tested, and the TGI [1] was over 100 µM, the TGI [2] was over 100 µM and the TGI [3] was over 100 µM. For the same compound, the TGI [5] was over 100 µM, the TGI [6] was over 100 µM and the TGI [7] was over 100 µM. It also gave a TGI [8] of over 100 µM.
